Measured values taken from PMC10352257, “In vivo effects of the alpha-synuclein misfolding inhibitor minzasolmin supports clinical development in Parkinson’s disease” (NPJ Parkinson's Disease, 2023).
Like-named read-outs stand apart in the source and are kept apart here.

Columns and labels:
[1] = design: method as in PMID 35959805; conditions: normal healthy volunteers and patients with Parkinson's disease; cited from earlier work
[2] = Mouse pharmacokinetics after single intraperitoneal dose (plasma and brain); assay type: in vivo; conditions: for AUC last / Cmax / AUC(0-t): mean ± SEM; for Kp / Tmax / half-life / Cmax / AUC(0-inf) / AUC(0-t): male, C57BL/6, mouse, ip; for Kp: brain and plasma, from AUCinf, read-out: brain/plasma exposure (AUC) ratio
Description: Characterization of exposure profile and brain distribution of minzasolmin in male C57BL/6 mice was performed at UCB BioPharma SPRL (Braine l’Alleud, Belgium). All the procedures were approved by the UCB Ethics Committee for Animal Experimentation and conducted in compliance with the Helsinki declaration and the guidelines of the European Community Council directive 86/609/EEC. UCB BioPharma is fully accredited by the Association for Assessment and Accreditation of Laboratory Animal Care (AAALAC). Male C57BL/6 mice (8 weeks of age, 20–27 g), purchased from Charles River Laboratories (Toulouse, France), were dosed intraperitoneally with 1 or 5 mg/kg of minzasolmin (10 mL/kg of 40% w/v Captisol® in water). Three mice were used per dose and per time of sampling (0.25, 0.5, 1, 2.5, and 6 h). Mice were anaesthetized with isofluorane and blood was collected from the vena cava into K2EDTA tubes. Animals were then perfused through the left ventricle with 20 mL of heparinized NaCl 0.9% (20 UI/mL), rate flow 20 mL/min, 1 min perfusion time. At the end of the procedure mice were sacrificed by cervical dislocation. Brain samples were weighed and collected in cold glass vials and stored at −20 °C, until bioanalysis. All blood samples were thoroughly but gently mixed following collection and placed directly on ice then centrifuged at 4 °C, 3000 g for 15 min within 30 min after sampling. The collected plasma was stored at −20 °C, until bioanalysis. Samples were analyzed by liquid chromatography-tandem mass spectrometry (LC-MS/MS). Results of minzasolmin concentrations in plasma and brain are reported in ng/mL and ng/g respectively. Pharmacokinetic profiling was performed by non-compartmental analysis, using Phoenix WinNonlin v6.4 software (Pharsight Inc., St. Louis, MO). All computations utilized the sparse sampling method according to the experimental composite sampling regimen.

Line 61 transgenic mice = test: Tolerability in the 3-month administration study; assay type: in vivo; conditions: 1 or 5 mg/kg i.p. once daily for 3 months; no apparent adverse effects on subject health
Description: A transgenic mouse model of Parkinson’s disease overexpressing human wild-type ASYN under the murine Thy-1 promoter on a mixed C57Bl/6 background was used in the present studies (commonly referred to Line 61)[49]. The Line 61 transgenic mouse model of Parkinson’s disease develops extensive accumulation of ASYN in areas relevant to Parkinson’s disease[49]–[51], neurodegeneration (as evidenced by loss of tyrosine hydroxylase[52],[53] and dopamine transporter immunoreactivity[18] in the striatum), inflammation, and both motor and non-motor functional deficits. Multiple cohorts of mice were transferred from the University of California, San Diego to a Neuropore-funded AAALAC-accredited vivarium facility per a laboratory service agreement between Neuropore Therapies, Inc. and the laboratory of Dr. Eliezer Masliah under institutional animal care and use committee (IACUC) Protocol S02221. All in vivo testing was conducted by Neuropore personnel under Explora Biosciences animal care and use protocol (ACUP) number E15-016-2. […]. Animals received free access to food and water prior to the experiment. The vivarium ambient room temperature was monitored daily and kept within a range of 68–72 degrees Fahrenheit. Animals were kept on a 12:12 diurnal light cycle, with lights on at 0600. […]

[3] = Bioanalysis of compound levels in plasma and brain after long-term treatment; assay type: in vivo; conditions: mouse, ip, Line 61 transgenic mice, 1 h post final dose, mean ± S.E.M.
Description: Minzasolmin was dissolved in a vehicle solution consisting of 40% Captisol (CyDex Pharmaceuticals, Inc.; Kansas, USA) in sterile water and administered at a volume of 0.1 ml/20 g of body weight. Animals received a Monday–Friday daily intraperitoneal injection of vehicle, or 1 or 5 mg/kg minzasolmin for approximately 90 days. Animals received treatment up to and including a final injection 1 h prior to euthanasia. All study solutions were blind coded and experimenters were blinded to genotype and treatment group assignments for the duration of the study, ex vivo evaluations (i.e., neuropathology sample processing and imaging, videotape scoring) and through penultimate data analyses (i.e., data quality control with documented exclusions prior to unblinding; unblinding required for a priori pairwise comparisons).
All subjects were euthanized within 1 h of the last treatment and brain and blood were collected. Tissue processing and imaging methods were conducted as described previously[17],[18],[52] and performed under a lab service agreement between UCSD and Neuropore Therapies. All samples were blind coded to genotype and treatment group throughout immune-histological processing and imaging. The right hemibrain was post-fixed in phosphate-buffered 4% paraformaldehyde (pH 7.4) at 4 °C for 48 and then serially sectioned into […] thick sagittal sections using a vibratome. Sections were free-floated and incubated overnight at 4 °C with primary antibodies. To confirm the specificity of primary antibodies, control experiments were performed in which sections were incubated overnight in the absence of primary antibody, pre-immune serum, or primary antibody pre-adsorbed for 48 h with 20-fold excess of the corresponding peptide. Tissue collection, processing, and imaging methods were conducted as described previously. Briefly, the right hemibrain was post-fixed in phosphate-buffered 4% paraformaldehyde (pH 7.4) at 4 °C for 48 h, and then serially sectioned into 40 µm thick coronal sections using a vibratome. Sections were free-floated and incubated overnight at 4 °C with primary antibodies. To confirm the specificity of primary antibodies, control experiments were performed in which sections were incubated overnight in the absence of primary antibody (data not shown). Immunolabeled sections were imaged with a Zeiss 63× (N.A. 1.4) objective on an Axiovert 35 microscope (Zeiss, Germany). Immunolabeling was evaluated as a corrected optical density across a field of view. Summary tables of statistics for each measure are presented in Supplementary Tables 1–5.
Analysis of minzasolmin by HPLC-MS/MS in plasma and brain homogenate study subject samples was conducted by PRA Health Sciences (Lenexa, KS, USA). Group means were obtained using Graph Pad Prism v. […]

[4] = brain, 1 mg/kg single i.p., C57/Bl6 mice
[5] = brain, 5 mg/kg single i.p., C57/Bl6 mice
[6] = plasma, 1 mg/kg single i.p., C57/Bl6 mice
[7] = plasma, 5 mg/kg single i.p., C57/Bl6 mice

## CCCC[C@H](Cc1c[nH]c2ccccc12)NC(=O)c1cnc(N2CCN(C)CC2)s1 [minzasolmin]
[1]
  safety and pharmacokinetic profiles: favorable
[2]; [4]
  AUC inf: 99.0 ng·h/g
  AUC last: 93.9 ± 4.2 ng·h/g
  half-life: 33.6 min
  Cmax: 76 ± 4 ng/g
[2]; [5]
  AUC inf: 422 ng·h/g
  AUC last: 394 ± 21 ng·h/g
  half-life: 36 min
  Cmax: 292 ± 30 ng/g
[2]; brain, 1 and 5 mg/kg i.p.
  time of highest brain levels after dosing: 0.5 h
[2]; 1 mg/kg i.p.
  Kp: 0.32
[2]; 5 mg/kg i.p.
  Kp: 0.26
[2]; brain, 1 mg/kg, brain, 1 mg/kg single i.p., C57/Bl6 mice, read-out: T max
  Tmax: 30 min
[2]; brain, 5 mg/kg, brain, 5 mg/kg single i.p., C57/Bl6 mice, read-out: T max
  Tmax: 30 min
[2]; [6]
  AUC(0-inf): 308 ng·h/mL
  half-life: 41.4 min
  AUC(0-t): 307 ± 13 ng·h/mL
  Cmax: 332 ± 18 ng/mL
[2]; [7]
  AUC(0-inf): 1650 ng·h/mL
  half-life: 49.8 min
  AUC(0-t): 1640 ± 86 ng·h/mL
  Cmax: 1320 ± 124 ng/mL
[2]; plasma, 1 mg/kg, plasma, 1 mg/kg single i.p., C57/Bl6 mice, read-out: T max
  Tmax: 30 min
[2]; plasma, 5 mg/kg, plasma, 5 mg/kg single i.p., C57/Bl6 mice, read-out: T max
  Tmax: 15 min
[2]; plasma, 5 mg/kg, plasma, 1 and 5 mg/kg i.p., read-out: time of maximum plasma concentration after dosing
  Tmax: 15 to 30 min
Line 61 transgenic mice
  tolerability of treatments for the duration of the experiment: well tolerated
[3]; brain, 1 mg/kg i.p. daily about 90 days, read-out: [minzasolmin] Brain
  concentration at 1 h: 12.1 ± 1.5 ng/g
[3]; brain, 5 mg/kg i.p. daily about 90 days, read-out: [minzasolmin] Brain
  concentration at 1 h: 69.5 ± 4.7 ng/g
[3]; plasma, 1 mg/kg i.p. daily about 90 days, read-out: [minzasolmin] Plasma
  concentration at 1 h: 72.3 ± 7.9 ng/mL
[3]; plasma, 5 mg/kg i.p. daily about 90 days, read-out: [minzasolmin] Plasma
  concentration at 1 h: 357 ± 16.8 ng/mL
